Experimental data taken from patent publication US8299237B2, “Nucleic acid sequences comprising NF-κB binding site within O(6)-methylguanine-DNA-methyltransferase (MGMT) promoter region and uses thereof for the treatment of cancer and immune-related disorders” (Hadasit Medical Research Services & Development Ltd., priority 2007, dated 2012).

What was measured:
NF-κB/p65 = molecular target: T1, NF-κB/p65 (Homo sapiens, UniProt Q04206); assay: Gel electrophoretic mobility shift assay (EMSA) with HeLa nuclear extracts; assay type: binding; conditions: nuclear extracts from Hela cells exposed to TNFα (200 u/ml)
T1 construct: 10 μg of nuclear extracts with 0.3 ng of ^32P-labeled synthetic double-stranded oligodeoxynucleotides; endogenous in cells; host or cells: HeLa cells treated with TNFα (nuclear extract)
T1 sequence (Q04206 whole entry): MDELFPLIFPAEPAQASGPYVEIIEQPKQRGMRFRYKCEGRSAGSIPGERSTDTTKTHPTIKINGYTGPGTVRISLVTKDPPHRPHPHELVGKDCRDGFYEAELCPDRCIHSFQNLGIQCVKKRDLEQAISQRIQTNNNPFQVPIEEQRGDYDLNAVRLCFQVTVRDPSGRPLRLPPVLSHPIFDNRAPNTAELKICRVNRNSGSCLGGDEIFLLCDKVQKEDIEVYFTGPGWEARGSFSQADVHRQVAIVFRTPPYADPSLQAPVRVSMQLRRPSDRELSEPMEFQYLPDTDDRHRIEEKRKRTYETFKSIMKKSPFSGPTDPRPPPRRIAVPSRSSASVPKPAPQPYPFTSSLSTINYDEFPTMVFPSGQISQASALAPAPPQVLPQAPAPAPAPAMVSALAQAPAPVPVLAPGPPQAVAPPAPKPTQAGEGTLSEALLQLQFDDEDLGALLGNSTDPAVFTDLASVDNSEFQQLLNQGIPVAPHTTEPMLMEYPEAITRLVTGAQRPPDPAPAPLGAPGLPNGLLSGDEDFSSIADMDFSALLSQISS
Description: Nuclear extracts were prepared from HeLa cells treated with 200 units/ml of TNFα for 15 min. Oligodeoxynucleotides spanning the NF-κB binding site within the MGMT promoter (also denoted by SEQ ID NO. 4 and 5), with or without a C-G mutation (also denoted by SEQ ID NO. 6 and 7) or the consensus NF-κB site from HIV LTR (SEQ ID NO. 3, also shown in FIG. 1B), were end-labeled by a fill-in reaction using the Klenow fragment of DNA polymerase (New England Biolabs, Beverly, Mass.). DNA binding reactions were performed by incubation on ice for 15 min of 10 μg of nuclear extracts with 0.3 ng of ^32P-labeled synthetic double-stranded oligodeoxynucleotides in the presence of 10 mM Hepes, pH 7.9, 10% glycerol, 50 mM KCl, 5 mM MgCl2, 5 mM dithiothreitol, 2 μg of poly (dI·dC), and 0.1% Nonidet P-40. Competitor oligonucleotides were incubated in 100-fold molar excess and preincubated in the reaction mixtures for 10 min before addition of the radiolabeled probe. For supershift experiments, 1 μl of p65 antibody (MAB16200, Chemicon International Inc., Temecula, Calif.) was added during the preincubation period.
To explore whether the NF-κB sites found within the MGMT promoter actually bind NF-κB, the inventors next performed an EMSA analysis of nuclear extracts from HeLa cells treated with TNFα and with labeled DNA fragments spanning the region containing the NF-κB motif. As shown by FIG. 1C, this process generated a nuclear binding factor specific for these regions (FIG. 1C, lanes 5 and 9), of the same size as the complex attached to the consensus HIV-κB site as also denoted by SEQ ID NO. 3 (FIG. 1C, lane 2) as indicated by the black arrows. […] Binding specificity was confirmed by competition with cold HIV-κB oligonucleotide. […] This confirmed that p65 binds to both NF-κB putative sites. The upper band in lane 9 (FIG. 1C) is not the same size as the NF-κB complex attached to the canonical HIV-κB oligonucleotide (FIG. 1C, lane 2). It was neither shifted when incubated with NF-κB/p65 antibodies (lane 10), nor abolished in the presence of unlabeled HIV-κB probe (FIG. 1C, lane 11). Based on the finding that the MGMT-κB2 binding site overlaps the Sp1 site, the inventors speculate that this complex may further contain Sp1. This speculation is also supported by its size, which is the same as that of the complex attached to the Sp1 oligonucleotide (FIG. 1C, lane 1).

[1] = tested on: MGMT-kB1-Luc reporter construct induced by NF-κB/p65; assay: Luciferase reporter assay, MGMT-kB1-Luc co-transfected with NF-κB/p65; assay type: cell-based, human
Description: Transient transfections were performed in 6-well plates, using the FuGene6 transfection reagent (Roche Diagnostics GmbH, Mannheim, Germany), according to the manufacturer's instructions. U87MG, T98G, and A172 cells were transfected with pNF-κB-Luc reporter Vector (Clontech, Palo Alto, Calif.), while RG2 and U87MG were transfected with MGMT-Luc [construct p-954/+24 mL [Biswas T. et al. Oncogene 18:525-32 (1999)] kindly provided by Sankar Mitra] (1 μg/well). CMVβ-galactosidase expression vector (CMVβgal-Clonthech) was included (0.1 μg/well) in each transfection to normalize transfection efficiency. HEK293 cells were transfected with CMVβgal alone or along with one or more of the following plasmids: CMVp65, CMVΔNIκB, CMVp50, CMVcJun. CMVp65 and CMVΔNIκB plasmids were kindly provided by Prof. Yinon. Ben-Neriah (The Hebrew University, Jerusalem, Israel), CMVp50 and CMVcJun were kindly provided by Dr. Danielle Melloul (Hadassah Hebrew University Medical Center, Jerusalem, Israel).
At 24 hrs following transfection, the cells were lysed for 15 min on ice with 200 μl of luciferase lysis buffer (Promega, Madison, Wis.). Luciferase assays were carried out using a Promega assay kit and a luminometer (EG&G Berthold, Bad Wildbad, Germany). The activity was normalized to β-galactosidase activity (Promega) and plotted as the mean±s.d. of triplicates from a representative experiment.
For the cloning of the MGMT-luc constructs the reporter vector p-TA-Luc (Clontech, Palo Alto, USA) was used. The plasmid contains TATA box motif upstream to a luciferase reporter gene. A double stranded DNA corresponding to four repeats of each sequence as indicated by FIG. 8A (also denoted by SEQ ID NO. 44, 45, 46 and 47), was synthesis by syntezza LTD and ligated upstream to the TATA box.
To test the activity of these sites, several luciferase reporter genes bearing four copies of either intact or mutant sequence, of each of the two NF-κB sites (NF-κB1 and NF-κB2), were constructed as indicated in Experimental procedures. […] An inhibition of approximately 50% was observed using 100 nM ODN. Negative control using the CMVΔNIκB (ΔN)-Luc construct as well as positive control using the canonical HIV-κB-Luc reporter construct, confirmed validity of the data.
Induction of over expression of NF-κB in HEK 293T cells by transfection of a CMV-NF-κB/p65 generated a 50-fold elevation in luciferase expression driven by the Co-transfected reporter construct MGMT-kB1-Luc. […] Inhibition of approximately 90% was induced by 150 nM LMODN. […] No inhibition was detected when a mutant LMODN was introduced into the cells, indicating the specificity of MGMT-kB1-LMODN (of SEQ ID NO. 40 and 41). […] 3 (HIV-κB-Luc construct).

| Substance | binding of NF-κB in nuclear extract to 32P-labeled probe (in words) (NF-κB/p65) | inhibition of luciferase activity ([1]; 100 nM ODN, HEK293T, MGMT-κB1 reporter construct + NF-κB/p65 (FIG. 7)) | effect on luciferase activity driven by MGMT-kB1 reporter (in words) ([1]; HEK293T co-transfected with MGMT-kB1 reporter and NF-κB/p65) |
| --- | --- | --- | --- |
| HIV-κB: consensus NF-κB site from HIV LTR, control probe (DNA GGCTTCAGAGGGGACTTTCCGAGA; labeled probe, label not given here, further chemistry not given here; listed as Homo sapiens) | formation of complexes of a similar size | – | – |
| MGMT-κB1 Mut: MGMT-κB1 oligonucleotide with mutated site (C-to-G substitution) (DNA TGATGGCTTCTGTAAAGTCGGCATCTCCAAATAAGGTCAC; DNA, backbone not given here; further chemistry not fully specified; listed as Homo sapiens) | Specific binding was not observed | – | – |
| MGMT-κB2 Mut: MGMT-κB2 oligonucleotide with mutated site (C-to-G substitution) (DNA GGCGGGAACACGGCGCCCCGCCCG; DNA, backbone not given here; further chemistry not fully specified; listed as Homo sapiens) | Specific binding was not observed | – | – |
| MGMT-κB2: EMSA oligodeoxynucleotide probe spanning the NF-κB binding site MGMT-κB2 within the MGMT promoter (DNA GGCGGGAACACCCCGCCCCGCCCG; DNA, backbone not given here; further chemistry not fully specified; listed as Homo sapiens) | formation of complexes of a similar size | – | – |
| MGMT-κB-1: EMSA oligodeoxynucleotide probe spanning the NF-κB binding site MGMT-κB1 within the MGMT promoter (DNA TGATGGCTTCTGTAAAGTCCCCATCTCCAAATAAGGTCAC; DNA, backbone not given here; further chemistry not fully specified; listed as Homo sapiens) | formation of complexes of a similar size | – | – |
| SEQ ID NO. 36 and 37: double stranded LNA modified ODN decoy of MGMT-kB1 site; forward SEQ ID NO. 36, reverse SEQ ID NO. 37 (sense TAAGAGGGACTTTACGGGACTTTACTACAT; antisense ATGTAGTAAGTCCCGTAAAGTCCCTCTTA; LNA modifications, chemistry not fully specified; listed as Homo sapiens) [double stranded LNA modified ODN decoy of MGMT-kB1 site; 37] | – | approximately 50% | decreased the luciferase activity in a dose-dependent manner |
